Assays:
[1] = test system: TE-10 (Esophageal Squamous Cell Carcinoma); experiment: combination Emax (second highest fraction inhibited in the dose matrix, 72 h); higher = more inhibition; extreme values may be limits of the assay
Outline: (§1)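 Cell lines grown in DMEM/F12 or RPMI with 10% FBS were plated in 1536-well plates and held 24 hours at 37°C, 5% CO2 before 72 hours of exposure to two-drug dose matrices, with DMSO typically at 0.2%. CellTiter-Glo 2.0 luminescence gave viability, which was converted to inhibition. Vehicle wells were set to 0 and blank wells to 1. Combination Emax is the second-highest inhibition in the matrix, and Bliss excess is the observed combination effect minus the expected EA + EB − EA·EB, where EA and EB are the single-agent effects.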

[2] = test system: CA46 (Burkitt's Lymphoma); experiment: Bliss excess, mean over the matrix (fraction); higher = more synergy
Outline: as §1

[3] = test system: HCC1395 (Breast Carcinoma); experiment: as above
Outline: as §1

[4] = test system: DU-4475 (Breast Carcinoma); experiment: as above
Outline: as §1

[5] = test system: WM1552C (Melanoma); experiment: as above
Outline: as §1

[6] = test system: TE-10 (Esophageal Squamous Cell Carcinoma); experiment: as above
Outline: as §1

[7] = test system: G-402 (Other Solid Carcinomas); experiment: as above
Outline: as §1

[8] = test system: HCC1428 (Breast Carcinoma); experiment: as above
Outline: as §1

[9] = test system: EB2 (Burkitt's Lymphoma); experiment: as above
Outline: as §1

[10] = test system: KYSE-220 (Esophageal Squamous Cell Carcinoma); experiment: as above
Outline: as §1

[11] = test system: CAL-27 (Oral Cavity Carcinoma); experiment: as above
Outline: as §1

[12] = test system: MHH-ES-1 (Ewing's Sarcoma); experiment: as above
Outline: as §1
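Wherever Bliss excess, mean over the matrix is given: after 72 h of two-drug dosing.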

| Structure (SMILES) | combination Emax [1] | Bliss excess [2] | Bliss excess [3] | Bliss excess [4] | Bliss excess [5] | Bliss excess [6] | Bliss excess [7] | Bliss excess [8] | Bliss excess [9] | Bliss excess [10] | Bliss excess [11] | Bliss excess [12] |
| --- | --- | --- | --- | --- | --- | --- | --- | --- | --- | --- | --- | --- |
| CN(C)CCCOc1ccc(-c2ccc3ncc4c(c3c2)n(C2CCOCC2)c(=O)n4C)cn1 [AZD0156] + C[C@@H]1COCCN1C2=NC(=NC(=C2)C3(CC3)[S@](=N)(=O)C)C4=C5C=CNC5=NC=C4 [AZD6738] (first compound max 1 µM, 7x7, partner max 10 µM) | 0.814 | 0.0799 | -0.0245 | -0.0587 | 0.0189 | -0.0075 | -0.0306 | -0.0541 | -0.0562 | 0.0134 | 0.0433 | 0.0361 |
| CC1(C)CCC(CN2CCN(c3ccc(C(=O)NS(=O)(=O)c4ccc(NCC5CCOCC5)c([N+](=O)[O-])c4)c(Oc4cnc5[nH]ccc5c4)c3)CC2)=C(c2ccc(Cl)cc2)C1 [Venetoclax] + COc1cc(Nc2ncc3c(n2)-c2ccc(Cl)cc2C(c2c(F)cccc2OC)=NC3)ccc1C(=O)O [Alisertib] (first compound max 1 µM, 7x7, partner max 10 µM) | 0.639 | -0.017 | -0.0147 | 0.0933 | -0.0613 | -0.0401 | -0.0116 | 0.0554 | 0.13 | -0.0305 | -0.0088 | 0.0931 |
| Cc1c2c(nn1C)CSCc1cc(n(C)n1)CSc1cc(c3ccccc3c1)OCCCc1c(C(=O)O)n(C)c3c-2c(Cl)ccc13 [AZD5991] + C[C@@H]1COCCN1C2=NC(=NC(=C2)C3(CC3)[S@](=N)(=O)C)C4=C5C=CNC5=NC=C4 [AZD6738] (first compound max 1 µM, 7x7, partner max 10 µM) | 0.901 | -0.0252 | 0.0307 | 0.0233 | -0.0084 | -0.0332 | 0.0386 | -0.0045 | -0.0097 | -0.0328 | 0.0358 | 0.0135 |
| CC1(C)CCC(CN2CCN(c3ccc(C(=O)NS(=O)(=O)c4ccc(NCC5CCOCC5)c([N+](=O)[O-])c4)c(Oc4cnc5[nH]ccc5c4)c3)CC2)=C(c2ccc(Cl)cc2)C1 [Venetoclax] + C=CCn1c(=O)c2cnc(Nc3ccc(N4CCN(C)CC4)cc3)nc2n1-c1cccc(C(C)(C)O)n1 [AZD1775] (first compound max 1 µM, partner max 1 µM) | 0.856 | -0.0322 | 0.0202 | -0.0262 | 0.0354 | 0.0301 | -0.0625 | -0.0386 | 0.063 | -0.0321 | -0.0321 | -0.001 |
| COc1cccc(OCCCN)c1-c1cc(Nc2cnc(C#N)cn2)n[nH]1 [Prexasertib] + O=C(c1cc(Cc2n[nH]c(=O)c3ccccc23)ccc1F)N1CCN(C(=O)C2CC2)CC1 [Olaparib] (first compound max 1 µM, 7x7, partner max 10 µM) | 0.892 | -0.192 | -0.0368 | -0.0174 | -0.134 | -0.105 | -0.0572 | 0.0501 | -0.0373 | -0.0238 | -0.0113 | 0.0048 |
| CCN(CCO)CCCOc1ccc2c(Nc3cc(CC(=O)Nc4cccc(F)c4)[nH]n3)ncnc2c1 [AZD2811] + C[C@@H]1COCCN1C2=NC(=NC(=C2)C3(CC3)[S@](=N)(=O)C)C4=C5C=CNC5=NC=C4 [AZD6738] (first compound max 1 µM, 7x7, partner max 10 µM) | 0.794 | -0.0698 | -0.0579 | 0.0045 | -0.0468 | -0.0869 | -0.0703 | -0.0369 | 0.0038 | -0.0541 | -0.0452 | -0.0145 |
| Cc1c2c(nn1C)CSCc1cc(n(C)n1)CSc1cc(c3ccccc3c1)OCCCc1c(C(=O)O)n(C)c3c-2c(Cl)ccc13 [AZD5991] + Cn1cnc2c(F)c(Nc3ccc(Br)cc3Cl)c(C(=O)NOCCO)cc21 [Selumetinib] (first compound max 1 µM, 7x7, partner max 3 µM) | 0.899 | -0.0195 | 0.0152 | -0.0018 | -0.089 | 0.0198 | -0.0416 | -0.0185 | -0.0046 | 0.0119 | 0.0086 | -0.0127 |
| CC1(C)CCC(CN2CCN(c3ccc(C(=O)NS(=O)(=O)c4ccc(NCC5CCOCC5)c([N+](=O)[O-])c4)c(Oc4cnc5[nH]ccc5c4)c3)CC2)=C(c2ccc(Cl)cc2)C1 [Venetoclax] + C1CN(CCC1(C(=O)N[C@@H](CCO)C2=CC=C(C=C2)Cl)N)C3=NC=NC4=C3C=CN4 [Capivasertib] (first compound max 1 µM, 7x7, partner max 3 µM) | 0.506 | -0.0473 | -0.0806 | 0.0239 | -0.0834 | -0.04 | -0.12 | -0.0377 | -0.0286 | -0.0023 | -0.0432 | -0.01 |

— the supplement of paper PMC11061612
